Experimental findings from ChEMBL document CHEMBL1142911, “Design and synthesis of pyridine-pyrazolopyridine-based inhibitors of protein kinase B/Akt” (Bioorg Med Chem, 2007) are described below.

For one assay, the system named is MIA PaCa-2. In words: Antiproliferative activity against MIA PaCa cells by MTT assay. It is filed as functional, cell-based. The settings on record: Homo sapiens.
For assay [1], the target named is cAMP-dependent protein kinase (PKA) (Homo sapiens, UniProt P22694+P17612+P22612). In words: Inhibition of PKA. It is filed as protein assay.

The term EC50 denotes the concentration giving half of the maximal effect. In general, IC50 refers to the point on the concentration scale where inhibition reaches its midpoint. A high value points to weaker potency in that assay.

`N[C@H](COc1cncc(-c2cc3cn[nH]c3cn2)c1)Cc1ccccc1`: the EC50 with MIA PaCa-2 is 1690 nM.
`Cc1n[nH]c2cnc(-c3cncc(OC[C@@H](N)Cc4ccccc4)c3)cc12` gave an IC50 in assay [1] of 32 nM. Also, the EC50 with MIA PaCa-2 stood at 680 nM.
As to `N[C@H](COc1cncc(-c2ccc3[nH]ncc3c2)c1)Cc1c[nH]c2ccccc12`, a half-maximal response with MIA PaCa-2 (EC50) required 820 nM.
`N[C@H](COc1cncc(-c2ccc3[nH]nc(Cl)c3c2)c1)Cc1c[nH]c2ccccc12` came in with an IC50 in assay [1] of 6.8 nM. The same compound returned an EC50 with MIA PaCa-2 of 380 nM.
`N[C@H](COc1cncc(-c2cc3cn[nH]c3cn2)c1)Cc1c[nH]c2ccccc12`: the midpoint of the response in the assay with MIA PaCa-2, the EC50, lay at 1160 nM. In other words, the single-digit micromolar range.
Compound `C=Cc1n[nH]c2cnc(-c3cncc(OC[C@@H](N)Cc4ccccc4)c3)cc12` returned an IC50 in assay [1] of 32 nM. Also, the EC50 in the assay with MIA PaCa-2 was found to be 660 nM.
`N[C@H](COc1cncc(-c2cc3c(Cl)n[nH]c3cn2)c1)Cc1ccccc1` showed an IC50 in assay [1] of 46 nM.
As to `Cc1n[nH]c2cnc(-c3cncc(OC[C@@H](N)Cc4c[nH]c5ccccc45)c3)cc12`, in assay [1], the IC50 is recorded as 15 nM. In the assay on MIA PaCa-2, this compound had an EC50 of 41 nM.
`N[C@H](COc1cncc(-c2ccc3[nH]nc(C(F)(F)F)c3c2)c1)Cc1c[nH]c2ccccc12`: in assay [1], the IC50 is 16 nM. Also, the response in the assay on MIA PaCa-2 was half-maximal at 1290 nM (EC50).
For `N[C@H](COc1cncc(-c2cc3c(-c4ccccc4)n[nH]c3cn2)c1)Cc1ccccc1`, the IC50 in assay [1] turned out to be 371 nM. Further, the EC50 in the assay with MIA PaCa-2 worked out at 584 nM.
In the case of `N[C@H](COc1cncc(-c2cc3cn[nH]c3cc2[N+](=O)[O-])c1)Cc1c[nH]c2ccccc12`, in the assay with MIA PaCa-2, the EC50 was 2940 nM.
With `N[C@H](COc1cncc(-c2cc3c(-c4ccco4)n[nH]c3cn2)c1)Cc1ccccc1`, in assay [1], the IC50 is 274 nM. Also, the EC50 in the assay with MIA PaCa-2 was 1200 nM.
Taken in the same sequence, the figures for `Nc1cc2[nH]nc(Cl)c2cc1-c1cncc(OC[C@@H](N)Cc2c[nH]c3ccccc23)c1` were 58 nM and 330 nM.
